Data reported in patent publication US20170042152A1, “SAFENED HERBICIDAL COMPOSITIONS COMPRISING PYRIDINE CARBOXYLIC ACIDS” (priority 2015, published 2017).

Tests used:
kochia (KCHSC) = test: Greenhouse postemergence trial, weed efficacy; type: in vivo, Kochia scoparia; settings: herbicide 0 g ae/ha, 20-22 d
Protocol: (§1) Seeds of the desired test plant species were planted in Sun Gro MetroMix® 306 planting mixture, which typically has a pH of 6.0 to 6.8 and an organic matter content of about 30 percent, in plastic pots with a surface area of 103.2 square centimeters (cm^2). When required to ensure good germination and healthy plants, a fungicide treatment and/or other chemical or physical treatment was applied. The plants were grown for 7-36 days (d) in a greenhouse with an approximate 14-hour (h) photoperiod which was maintained at about 18° C. during the day and 17° C. during the night. Nutrients and water were added on a regular basis and supplemental lighting was provided with overhead metal halide 1000-Watt lamps as necessary. The plants were employed for testing when they reached the second or third true leaf stage.
(§2) Weighed amounts of technical material were dissolved in a volume of 97:3 volume per volume (v/v) acetone/dimethyl sulfoxide (DMSO) to stock solutions. […] Compound requirements are based upon a 12 milliliter (mL) application volume at a rate of 187 liters per hectare (L/ha). Stock solutions of the safeners were prepared following the same procedure. Spray solutions of the safeners and experimental compound mixtures were prepared by adding the stock solutions to the appropriate amount of dilution solution to form a 12 mL spray solution in two-way combinations. Formulated compounds were applied to the plant material with an overhead Mandel track sprayer equipped with 8002E nozzles calibrated to deliver 187 L/ha over an application area of 0.503 square meters (m^2) at a spray height of 18 inches (43 centimeters (cm)) above average plant canopy. Control plants were sprayed in the same manner with the solvent blank.
(§3) The treated plants and control plants were placed in a greenhouse as described above and watered by sub-irrigation to prevent wash-off of the test compounds. After 20-22 d, the condition of the test plants as compared with that of the control plants was determined visually and scored on a scale of 0 to 100 percent where 0 corresponds to no injury and 100 corresponds to complete kill. Colby's equation was used to determine the herbicidal effects expected from the mixtures.

spring barley (HORVS) = test: Greenhouse postemergence safening trial, crop phytotoxicity; type: in vivo, Hordeum vulgare; settings: herbicide 0 g ae/ha, 20-22 d
Protocol: as §1, §2, §3

wild buckwheat (POLCO) = test: Greenhouse postemergence trial, weed efficacy; type: in vivo, Polygonum convulvus; settings: herbicide 0 g ae/ha, 20-22 d
Protocol: as §1, §2, §3

pigweed (AMARE) = test: Greenhouse postemergence trial, weed efficacy; type: in vivo, Amaranthis retroflexus; settings: herbicide 0 g ae/ha, 20-22 d
Protocol: as §1
as §2, with “Control plants were sprayed in the same manner with the solvent blank.” left out
as §3, with “Colby's equation was used to determine the herbicidal effects expected from the mixtures.” left out

wild chamomile (MATCH) = test: Greenhouse postemergence trial, weed efficacy; type: in vivo, Matricaria chamomilla; settings: herbicide 0 g ae/ha, 20-22 d
Protocol: as §1
as §2, with “Control plants were sprayed in the same manner with the solvent blank.” left out
as §3, with “Colby's equation was used to determine the herbicidal effects expected from the mixtures.” left out

lambsquarters (CHEAL) [1] = test: Greenhouse postemergence trial, weed efficacy; type: in vivo, Chenopodium album; settings: herbicide 0 g ae/ha, 20-22 d
Protocol: as §1, §2, §3

wild mustard (SINAR) = test: Greenhouse postemergence trial, weed efficacy; type: in vivo, Sinapis arvensis; settings: herbicide 0 g ae/ha, 20-22 d
Protocol: as §1, §2, §3

shepherd's purse (CAPBP) = test: Greenhouse postemergence trial, weed efficacy; type: in vivo, Capsella bura-pastoris; settings: herbicide 0 g ae/ha, 20-22 d
Protocol: as §1, §2, §3

[2] = test system: bird's-eye speedwell (VERPE); test: Greenhouse postemergence trial, weed efficacy; type: in vivo, Veronica persica; settings: herbicide 0 g ae/ha, 20-22 d
Protocol: as §1, §2, §3

winter wheat (TRZAW) = test: Greenhouse postemergence safening trial, crop phytotoxicity; type: in vivo, Triticum aestivum; settings: herbicide 0 g ae/ha, 20-22 d
Protocol: as §1, §2, §3

spring wheat (TRZAS) = test: as above; type: in vivo, Triticum aestivum; settings: herbicide 0 g ae/ha, 20-22 d
Protocol: as §1, §2, §3

wild pansy (VIOTR) = test: Greenhouse postemergence trial, weed efficacy; type: in vivo, Viola tricolor; settings: herbicide 0 g ae/ha, 20-22 d
Protocol: as §1, §2, §3

Russian thistle (SASKR) = test: Greenhouse postemergence trial, weed efficacy; type: in vivo, Salsola iberica; settings: herbicide 0 g ae/ha, 20-22 d
Protocol: as §1, §2, §3

Canada thistle (CIRAR) = test: Greenhouse postemergence trial, weed efficacy; type: in vivo, Cirsium arvense; settings: herbicide 0 g ae/ha, 20-22 d
Protocol: as §1
as §2, with “Control plants were sprayed in the same manner with the solvent blank.” left out
as §3, with “Colby's equation was used to determine the herbicidal effects expected from the mixtures.” left out

lambsquarters (CHEAL) [3] = test: Small plot field trial, weed growth reduction; type: in vivo, Chenopodium album; settings: 20 g ae/ha herbicide (triisopropanol amine salt), no safener, post-emergence, mean
durum wheat (TRZDU) = test: Small plot field trial, crop safety; type: in vivo, Triticum durum; settings: 20 g ae/ha herbicide (triisopropanol amine salt), no safener, post-emergence, mean
Protocol: The triisopropanol amine salts of herbicides of formulas I-G-A, I-G-B and I-G-C were tested with and without cloquintocet-mexyl in small plot field trials across various ecozones to evaluate the crop safety of these compounds on […] cereals including winter wheat and durum wheat.
All herbicide treatments were applied post-emergence in the spring to early summer. Herbicides were applied with bicycle or tractor-mounted sprayers using carbon dioxide (CO2) as a propellant. The sprayers delivered a uniform spray pattern that provided thorough coverage of the foliage using a 150 or 200 L/ha spray volume. At the time of herbicide applications, winter wheat was at the two leaf growth stage and durum wheat was at the 2-3 leaf growth stage.
Phytotoxicity to cereal crops was visually assessed as percent overall injury, compared to an untreated control plot. The overall injury assessments were based on visual ratings of growth inhibition, chlorosis, and delay in maturity. At late ratings (54-57 days after application), percent visual seed head deformity and reduction in seed formation were also assessed. Trials were designed as randomized complete blocks with four replicates. In general, three to four replicates were assessed for each treatment.

[4] = cloquintocet-mexyl 4.375 g ai/ha
[5] = cloquintocet-mexyl 8.75 g ai/ha
[6] = cloquintocet-mexyl 17.5 g ai/ha

CCCCCC(C)OC(=O)COc1ccc(Cl)c2cccnc12 (centres unmarked) [Cloquintocet-mexyl, cloquintocet-mexyl]
% visual injury KCHSC Ob (kochia (KCHSC); [4]): 0%
% visual injury KCHSC Ob (kochia (KCHSC); [5]): 0%
% visual injury KCHSC Ob (kochia (KCHSC); [6]): 0%
% visual injury KCHSC Ob (kochia (KCHSC); cloquintocet-mexyl 20 g ai/ha): 0%
% visual injury KCHSC Ob (kochia (KCHSC); cloquintocet-mexyl 35 g ai/ha): 0%
% visual injury KCHSC Ob (kochia (KCHSC); cloquintocet-mexyl 40 g ai/ha): 0%
% visual injury KCHSC Ob (kochia (KCHSC); cloquintocet-mexyl 70 g ai/ha): 0%
% visual injury KCHSC Ob (kochia (KCHSC); cloquintocet-mexyl 80 g ai/ha): 0%
% visual injury HORVS Ob (spring barley (HORVS); [4]): 0%
% visual injury HORVS Ob (spring barley (HORVS); [5]): 0%
% visual injury HORVS Ob (spring barley (HORVS); [6]): 0%
% visual injury HORVS Ob (spring barley (HORVS); cloquintocet-mexyl 20 g ai/ha): 0%
% visual injury HORVS Ob (spring barley (HORVS); cloquintocet-mexyl 35 g ai/ha): 0%
% visual injury HORVS Ob (spring barley (HORVS); cloquintocet-mexyl 40 g ai/ha): 0%
% visual injury HORVS Ob (spring barley (HORVS); cloquintocet-mexyl 70 g ai/ha): 0%
% visual injury HORVS Ob (spring barley (HORVS); cloquintocet-mexyl 80 g ai/ha): 0%
% visual injury POLCO Ob (wild buckwheat (POLCO); [4]): 0%
% visual injury POLCO Ob (wild buckwheat (POLCO); [5]): 0%
% visual injury POLCO Ob (wild buckwheat (POLCO); [6]): 0%
% visual injury POLCO Ob (wild buckwheat (POLCO); cloquintocet-mexyl 35 g ai/ha): 0%
% visual injury POLCO Ob (wild buckwheat (POLCO); cloquintocet-mexyl 70 g ai/ha): 0%
% visual injury AMARE Ob (pigweed (AMARE); cloquintocet-mexyl 20 g ai/ha): 0%
% visual injury AMARE Ob (pigweed (AMARE); cloquintocet-mexyl 40 g ai/ha): 0%
% visual injury AMARE Ob (pigweed (AMARE); cloquintocet-mexyl 80 g ai/ha): 0%
% visual injury MATCH Ob (wild chamomile (MATCH); cloquintocet-mexyl 20 g ai/ha): 0%
% visual injury MATCH Ob (wild chamomile (MATCH); cloquintocet-mexyl 40 g ai/ha): 0%
% visual injury MATCH Ob (wild chamomile (MATCH); cloquintocet-mexyl 80 g ai/ha): 0%
% visual injury CHEAL Ob (lambsquarters (CHEAL) [1]; cloquintocet-mexyl 20 g ai/ha): 0%
% visual injury CHEAL Ob (lambsquarters (CHEAL) [1]; cloquintocet-mexyl 40 g ai/ha): 0%
% visual injury CHEAL Ob (lambsquarters (CHEAL) [1]; cloquintocet-mexyl 80 g ai/ha): 0%
% visual injury SINAR Ob (wild mustard (SINAR); cloquintocet-mexyl 20 g ai/ha): 0%
% visual injury SINAR Ob (wild mustard (SINAR); cloquintocet-mexyl 40 g ai/ha): 0%
% visual injury SINAR Ob (wild mustard (SINAR); cloquintocet-mexyl 80 g ai/ha): 0%
% visual injury CAPBP Ob (shepherd's purse (CAPBP); cloquintocet-mexyl 20 g ai/ha): 0%
% visual injury CAPBP Ob (shepherd's purse (CAPBP); cloquintocet-mexyl 40 g ai/ha): 0%
% visual injury CAPBP Ob (shepherd's purse (CAPBP); cloquintocet-mexyl 80 g ai/ha): 0%
% visual injury VERPE Ob [2, 4]: 0%
% visual injury VERPE Ob [2, 5]: 0%
% visual injury VERPE Ob [2, 6]: 0%
% visual injury VERPE Ob ([2]; cloquintocet-mexyl 35 g ai/ha): 0%
% visual injury VERPE Ob ([2]; cloquintocet-mexyl 70 g ai/ha): 0%
% visual injury TRZAW Ob (winter wheat (TRZAW); cloquintocet-mexyl 20 g ai/ha): 0%
% visual injury TRZAW Ob (winter wheat (TRZAW); cloquintocet-mexyl 40 g ai/ha): 0%
% visual injury TRZAW Ob (winter wheat (TRZAW); cloquintocet-mexyl 80 g ai/ha): 0%
% visual injury TRZAS Ob (spring wheat (TRZAS); [4]): 0%
% visual injury TRZAS Ob (spring wheat (TRZAS); [5]): 0%
% visual injury TRZAS Ob (spring wheat (TRZAS); [6]): 0%
% visual injury TRZAS Ob (spring wheat (TRZAS); cloquintocet-mexyl 35 g ai/ha): 0%
% visual injury TRZAS Ob (spring wheat (TRZAS); cloquintocet-mexyl 70 g ai/ha): 0%
% visual injury VIOTR Ob (wild pansy (VIOTR); [4]): 0%
% visual injury VIOTR Ob (wild pansy (VIOTR); [5]): 0%
% visual injury VIOTR Ob (wild pansy (VIOTR); [6]): 0%
% visual injury VIOTR Ob (wild pansy (VIOTR); cloquintocet-mexyl 20 g ai/ha): 0%
% visual injury VIOTR Ob (wild pansy (VIOTR); cloquintocet-mexyl 35 g ai/ha): 0%
% visual injury VIOTR Ob (wild pansy (VIOTR); cloquintocet-mexyl 40 g ai/ha): 0%
% visual injury VIOTR Ob (wild pansy (VIOTR); cloquintocet-mexyl 70 g ai/ha): 0%
% visual injury VIOTR Ob (wild pansy (VIOTR); cloquintocet-mexyl 80 g ai/ha): 0%
% visual injury SASKR Ob (Russian thistle (SASKR); [4]): 0%
% visual injury SASKR Ob (Russian thistle (SASKR); [5]): 0%
% visual injury SASKR Ob (Russian thistle (SASKR); [6]): 0%
% visual injury SASKR Ob (Russian thistle (SASKR); cloquintocet-mexyl 35 g ai/ha): 0%
% visual injury SASKR Ob (Russian thistle (SASKR); cloquintocet-mexyl 70 g ai/ha): 0%
% visual injury CIRAR Ob (Canada thistle (CIRAR); cloquintocet-mexyl 20 g ai/ha): 0%
% visual injury CIRAR Ob (Canada thistle (CIRAR); cloquintocet-mexyl 40 g ai/ha): 0%
% visual injury CIRAR Ob (Canada thistle (CIRAR); cloquintocet-mexyl 80 g ai/ha): 0%

CC(F)(F)c1nc(C(=O)O)c(Cl)c(N)c1F [formula I-G-C]
Growth reduction of CHEAL, % of untreated (lambsquarters (CHEAL) [3]): 100 % of untreated
TRZDU Visual head deformation, % of untreated (durum wheat (TRZDU)): 23.6 % of untreated
TRZDU Visual injury, % of untreated (durum wheat (TRZDU)): 33.6 % of untreated
